Laboratory results taken from the NIST ThermoML archive (doi:10.1021/je100605v).

Conditions: Liquid, Closed cell (Static) method

CCO[Si](CC)(OCC)OCC [ethyltriethoxysilane]
Conditions | vapor or sublimation pressure [kPa]
335 K | 2.325
340.8 K | 3.325
346.2 K | 4.325
350.4 K | 5.325
359.9 K | 8.325
367.1 K | 11.32
372.9 K | 14.32
377.7 K | 17.32
382 K | 20.32
385.8 K | 23.32
389 K | 26.33
392 K | 29.32
394.8 K | 32.33
397.4 K | 35.33
399.9 K | 38.32
402.2 K | 41.33
404.1 K | 44.33
405.5 K | 47.32
407.6 K | 50.33
410.1 K | 53.32
411.9 K | 56.33
413.7 K | 59.33
415.4 K | 62.32
416.8 K | 65.32
418.3 K | 68.33
419.4 K | 71.33
420.6 K | 74.33
421.8 K | 77.33
423.7 K | 80.32
425.4 K | 83.33
426.7 K | 86.33
427.9 K | 89.33
429.1 K | 92.33
430.2 K | 95.32
431.3 K | 98.32
432 K | 100.33
